# From patent publication US5256824A, “Substituted-amine compound and a process for the preparation thereof” (Fujisawa Pharmaceutical Co., Ltd., priority 1990, dated 1993)
# Assays:
# [1] = tested on: Urinary Bladder Contractions Induced by Water Filling; test: Inhibition of Urinary Bladder Contractions Induced by Water Filling in Rats; assay type: in vivo, Male Sprague-Dawly rats; details: Rattus norvegicus; intravenous, anesthetized rats (urethane), hyperactive bladder by water filling
# Excerpt: Test on Inhibition of Urinary Bladder Contractions Induced by Water Filling in Rats
# Male Sprague-Dawly rats, weighing 240-450 g, were anesthetized with urethane 1.0 g/kg s.c. The bladder was exposed through a midline incision in the abdomen for the recording of pressure within the bladder as follows; a balloon attached to one end of a stainless steel tube (O.D., 1.2 mm, 5 cm in length) was inserted into the bladder through a small incision in the bladder dome. The other end of the tube was connected to a pressure-transducer. The ureters were ligated and cut, and the proximal cut end was cannulated with polyethylene tubing and the urine was led outside.
# Hyperactive urinary bladder (hyperactive contractions of the detrusor muscle) was induced by water filling of the bladder. Therefore, the balloon in the bladder was filled with water of a volume which caused a resting pressure of about 10 mmHg. Systemic blood pressure and heart rate were monitored from the common carotid artery.
# When the contractile responses to water filling became constant, test compounds were administered intravenously.
# [2] = tested on: Na channel; test: Na channel blocking activity (local anesthetic effect on the corneal blink reflex); assay type: in vivo, Male Japanese white rabbits; details: 1.0% solution in saline, 50 μl drops to one eye
# Method: Test on Na channel blocking activity
# Male Japanese white rabbits weighing 2.0-3.0 kg were to evaluate the local anesthetic effect of test compound on the corneal blink reflex. Corneal reflexes were elicited by pressing a flexible monofilament (rabbit whisker) against the cornea. 1.0% Test compound solution in saline was applied to one eye (50 μl drops) and the contralateral eye received as a control. Corneal blink responses were scored at 5, and 15 minutes after test compound application.
# Local anesthetic activities were expressed as an inhibition percent of blink responses.
Structure (SMILES),ED30 [1],Inhibition % of blink responses ([2]; 5 minutes after application),Inhibition % of blink responses ([2]; 15 minutes after application)
"CC(C)(C)NC1C=CC(c2ccccc2)(c2ccccc2)C1.CS(=O)(=O)O (single isomer, unassigned; (-)) [(-)-N-t-butyl-4,4-diphenyl-2-cyclopentenylamine methanesulfonate]",0.18 mg/kg,–,–
"CC(C)(C)NC1C=CC(c2ccccc2)(c2ccccc2)C1.Cl (single isomer, unassigned; (-)) [(-)-N-t-butyl-4,4-diphenyl-2-cyclopentenylamine hydrochloride]",–,100%,100%
